From US20260284046A1, “PYRIDAZINE COMPOUNDS FOR TREATMENT OF FIBROTIC DISEASES” (GEORG-AUGUST-UNIVERSITAET GOETTINGEN STIFTUNG OEFFENTLICHEN …, priority 2023, published 2026)

Assays:
[1] = tested on: human dermal fibroblasts HRO159N; assay: ELISA of secreted pro-collagen I alpha 1, human dermal fibroblasts HRO159N; assay type: cell-based; conditions: 48 h, 250 μg
Procedure: (§1) Compounds reconstitution and stock solution: Prior to treatment, DMSO was diluted in PMS until 0.1% DMSO was made. Each compound was solved in 0.1% DMSO (3: 2.5 mg/mL, 1: 2.5 mg/mL, 10: 1 mg/mL, 5: 1 mg/mL, 7: 0.6 mg/mL, 16: 1 mg/mL 17: 1 mg/mL, 44: 0.6 mg/mL, 36: 1 mg/mL.
(§2) Next the different stock solution with 150 μg and 250 μg of each compound per 1 ml culture solution was made by adding the 0.1% DMSO compound solution in the right amount to culture solution (DMEM with 10% FCS and 1% penicillin-streptomycin).
Three different cell lines were used for the experiments. GM637 is an immortalized cell line originated from human skin fibroblasts, bought in 2001, UKE1 and […] are cell lines originated from human dermal fibroblasts (dog ear) nurtured from patients, between 60 and 80 years old being completely anonymized at the clinic for dermatology, Rostock.
(§3) The cells lines were thawed and were cultured in Dulbecco's modified Eagle's medium (DMEM, Gibcon, USA) supplemented with 10% fetal bovine serum (FBS, Gibco, Germany) and 1% penicillin-streptomycin (PS, Gibco, USA) at 37° C. in a humidified atmosphere with 5% CO2 until a sufficient number of cells were culture in T75 culture bottles. After reaching a confluence of 80% to 90%, the cells were separated using trypsin and counted. Next 100.000 cells were planted in each well of a 6 well plate in replicates, washed and the DMEM solution with 150 μg and 250 μg/ml substance/DMEM and DMEM with no substance as control was added.
(§4) After 48 h and after 72 h 100 μl supernatant of each well was taken, labelled and frozen at −20° degree Celsius. Prior to perform ELISA the medium was depending on the cell line diluted 1:50 or 1:100 with PBS, otherwise the concentration of collagen fibers was too high to be measured.
The media containing the secretion of the different human dermal fibroblasts GM637, UKE1, and HRO159N were collected after 48 h and 72 h treatment. Secretion of pro-collagen 1 was assessed with human pro-collagen I alpha 1 DuoSet ELISA (R&D systems, USA) To prepare the Elisa plate, Human pro-Collagen I α capture antibody was diluted in ELISA plate-coating buffer at 4 μg/mL working concentration. 100 μl of diluted Capture antibody was added to 96-well microplates and incubated over night at room temperature. After three times washing with Wash Buffer, microplates were blocked by adding 300 μl of Reagent Diluent for 1 hour at room temperature. To proceed the ELISA Human pro-collagen I α1 Standards were diluted in Reagent Diluent (range between […]) and 100 μl of standards or conditioned mediums were added to designated wells. Microplates were incubated at room temperature for 2 hours. Human Pro-collagen I α1 Detection Antibody was prepared in Reagent Diluent at […] working concentration and 100 μl of diluted Detection Antibody was applied for 2 hours at room temperature after extensive washing. Then, working solution of Streptavidin-HRP with Reagent Diluent was prepared by diluting 1:40 and added into each well. After 20 minutes at room temperature incubation, microplates were washed and applied with 100 μl of Substrate Solution for 20 minutes followed by Stop Solution after washing. Finally, signals were measured at 450 nm absorbance by PHomo Microplate Reader (Autobio, China) The amount of pro-collagen 1 was quantified by extrapolating the signal into a linear range of a pro-collagen 1 standard curve. Screening compounds were typically tested at concentration of 150 and 250 μg/mL. The dose response data for each compound and the different cell lines were obtained by nonlinear regression analysis using Prism 9 software (GraphPad, La Jolla, USA).

[2] = tested on: human lung fibroblast MRCVI; assay: ELISA of secreted pro-collagen I alpha 1, human lung fibroblast MRCVI; assay type: cell-based; conditions: 48 h, 250 μg
Procedure: as §1, §2
As cell line MRCV1 was used, which is an immortalized cell line originated from human lung fibroblast, bought in 2001.
as §3, with “cell line was” for “cells lines were”, “and” for “and were”
as §4
The medium containing the secretion of the human lung fibroblast MRCVI was collected after 48 h and 72 h treatment. Secretion of pro-collagen 1 was assessed with human pro-collagen I alpha 1 DuoSet ELISA (R&D systems, USA) To prepare the Elisa plate, Human pro-Collagen I α capture antibody was diluted in ELISA plate-coating buffer at 4 μg/mL working concentration. 100 μl of diluted Capture antibody was added to 96-well microplates and incubated over night at room temperature. After three times washing with Wash Buffer, microplates were blocked by adding 300 μl of Reagent Diluent for 1 hour at room temperature. To proceed the ELISA Human pro-collagen I α1 Standards were diluted in Reagent Diluent (range between […]) and 100 μl of standards or conditioned mediums were added to designated wells. Microplates were incubated at room temperature for 2 hours. Human Pro-collagen I α1 Detection Antibody was prepared in Reagent Diluent at […] working concentration and 100 μl of diluted Detection Antibody was applied for 2 hours at room temperature after extensive washing. Then, working solution of Streptavidin-HRP with Reagent Diluent was prepared by diluting 1:40 and added into each well. After 20 minutes at room temperature incubation, microplates were washed and applied with 100 μl of Substrate Solution for 20 minutes followed by Stop Solution after washing. Finally, signals were measured at 450 nm absorbance by PHomo Microplate Reader (Autobio, China) The amount of pro-collagen 1 was quantified by extrapolating the signal into a linear range of a pro-collagen 1 standard curve. Screening compounds were typically tested at concentration of 150 and 250 μg/mL. The dose response data for each compound and the different cell lines were obtained by nonlinear regression analysis using Prism 9 software (GraphPad, La Jolla, USA).

| SMILES | collagen reduction percentage in comparison to the standard (100%) [1] | collagen reduction percentage in comparison to the standard (100%) [2] |
| --- | --- | --- |
| c1ccc2c(c1)cnn1nnnc21 [Compound 1, Tetrazolo[5,1-a]phthalazine] | 57% | 78% |
| COc1nn2c(C)nnc2c2ccccc12 [Compound 3, 6-Methoxy-3-methyl-1,2,4-triazolo[3,4-a]phthalazine] | 82% | 11% |
| CC(C)Oc1nn2nnnc2c2c(Cl)cccc12 [Compound 44, 10-chloro-6-isopropoxytetrazolo[5,1-a]phthalazine] | 72% |  |
| Cc1nnc2c3ccc(C(F)(F)F)cc3cnn12 [Compound 36, 3-Methyl-8-(trifluoromethyl)-[1,2,4]triazolo[3,4-a]phthalazine] |  | 68% |
| [2H]C([2H])([2H])c1nnc2c3ccccc3cnn12 [Compound 7, 3-D3-Methyl-1,2,4-triazolo[3,4-a]phthalazine] | 43% | 9% |
| c1nn2nnnc2c2cscc12 [Compound 17, Tetrazolo[1,5-b]thieno[3,4-d]pyridazine] | 34% | 16% |
| Cc1nnc2c3cscc3cnn12 [Compound 16, 3-Methylthieno[3,4-d][1,2,4]triazolo[4,3-b]pyridazine] | 79% | 43% |
| c1ccc2c(c1)cnn1cnnc21 [Compound 10, 1,2,4-Triazolo[3,4-a]phthalazine] |  | 52% |
